In PubChem BioAssay AID272 (DTP/NCI, 2004):
“And” between values parts separate entries of the source, which are not always exact repeats. Equal values may be shown once. Inconclusive results are not listed.

Tested on: Lewis lung carcinoma i.m., BDF1 mice, T/C %
Assay: NCI In Vivo Anticancer Drug Screen. Data for tumor model Lewis Lung Carcinoma (intramuscular) in B6D2F1 (BDF1) mice
In short: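 Value is the ratio of a treated-group measurement (T) to the matching vehicle-control measurement (C), using either survival or tumour size in mice bearing transplanted tumours.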

## CC1CCC(NC(=O)N(CCCl)N=O)CC1 (centres undefined)
endpoint: mean tumor weight, dose: 3.12 mg/kg/injection, schedule: Q01DX011 (ip), vehicle: saline, higher = larger tumour
  T/C: 83 % of control
endpoint: mean tumor weight, dose: 3.12 mg/kg/injection, schedule: Q06HX008 (ip), vehicle: saline, higher = larger tumour
  T/C: 80 % of control
endpoint: mean tumor weight, dose: 6.25 mg/kg/injection, schedule: Q01DX011 (ip), vehicle: saline, higher = larger tumour
  T/C: 63 % of control
endpoint: mean tumor weight, dose: 6.25 mg/kg/injection, schedule: Q06HX004 (ip), vehicle: saline, higher = larger tumour
  T/C: 41 % of control
endpoint: mean tumor weight, dose: 6.25 mg/kg/injection, schedule: Q06HX008 (ip), vehicle: saline, higher = larger tumour
  T/C: 93 % of control
endpoint: mean tumor weight, dose: 8.4 mg/kg/injection, schedule: Q01DX001 (sc), vehicle: Klucel (hydroxypropylcellulose) (HPC), higher = larger tumour
  T/C: 111 % of control
endpoint: mean tumor weight, dose: 12.5 mg/kg/injection, schedule: Q01DX001 (ip), vehicle: saline, higher = larger tumour
  T/C: 76 % of control
endpoint: mean tumor weight, dose: 12.5 mg/kg/injection, schedule: Q06HX008 (ip), vehicle: saline, higher = larger tumour
  T/C: 11 % of control
endpoint: mean tumor weight, dose: 12.5 mg/kg/injection, schedule: Q08DX002 (ip), vehicle: saline, higher = larger tumour
  T/C: 99 % of control
endpoint: mean tumor weight, dose: 14.0 mg/kg/injection, schedule: Q01DX001 (sc), vehicle: Klucel (hydroxypropylcellulose) (HPC), higher = larger tumour
  T/C: 56 % of control
endpoint: mean tumor weight, dose: 23.0 mg/kg/injection, schedule: Q01DX001 (sc), vehicle: Klucel (hydroxypropylcellulose) (HPC), higher = larger tumour
  T/C: 35 % of control
endpoint: mean tumor weight, dose: 25.0 mg/kg/injection, schedule: Q01DX001 (ip), vehicle: saline, higher = larger tumour
  T/C: 38 % of control
endpoint: mean tumor weight, dose: 25.0 mg/kg/injection, schedule: Q08DX002 (ip), vehicle: saline, higher = larger tumour
  T/C: 30 % of control
endpoint: mean tumor weight, dose: 39.0 mg/kg/injection, schedule: Q01DX001 (sc), vehicle: Klucel (hydroxypropylcellulose) (HPC), higher = larger tumour
  T/C: 21 % of control
endpoint: mean tumor weight, dose: 50.0 mg/kg/injection, schedule: Q01DX001 (ip), vehicle: saline, higher = larger tumour
  T/C: 12 % of control
endpoint: mean tumor weight, dose: 50.0 mg/kg/injection, schedule: Q08DX002 (ip), vehicle: saline, higher = larger tumour
  T/C: 8 % of control
endpoint: median survival time, dose: 1.0 mg/kg/injection, schedule: Q01DX009 (ip), vehicle: saline + alcohol, higher = longer survival
  T/C: 112 % of control
endpoint: median survival time, dose: 2.5 mg/kg/injection, schedule: Q01DX015 (ip), vehicle: saline, higher = longer survival
  T/C: 111 % of control
endpoint: median survival time, dose: 3.12 mg/kg/injection, schedule: Q01DX017 (ip), vehicle: saline, higher = longer survival
  T/C: 100 % of control
endpoint: median survival time, dose: 3.12 mg/kg/injection, schedule: Q06HX012 (ip), vehicle: saline, higher = longer survival
  T/C: 97 % of control
endpoint: median survival time, dose: 4.0 mg/kg/injection, schedule: Q01DX009 (ip), vehicle: saline + alcohol, higher = longer survival
  T/C: 104 % of control and 118 % of control
endpoint: median survival time, dose: 4.0 mg/kg/injection, schedule: Q01DX011 (ip), vehicle: saline with Tween-80, higher = longer survival
  T/C: 100 % of control and 114 % of control
endpoint: median survival time, dose: 5.0 mg/kg/injection, schedule: Q01DX015 (ip), vehicle: saline, higher = longer survival
  T/C: 97 % of control and 107 % of control
endpoint: median survival time, dose: 6.25 mg/kg/injection, schedule: Q06HX004 (ip), vehicle: saline, higher = longer survival
  T/C: 106 % of control
endpoint: median survival time, dose: 6.3 mg/kg/injection, schedule: Q01DX015 (ip), vehicle: saline, higher = longer survival
  T/C: 95 % of control
endpoint: median survival time, dose: 7.5 mg/kg/injection, schedule: Q07DX003 (ip), vehicle: saline, higher = longer survival
  T/C: 90 % of control
endpoint: median survival time, dose: 7.9 mg/kg/injection, schedule: Q01DX015 (ip), vehicle: saline, higher = longer survival
  T/C: 90 % of control
endpoint: median survival time, dose: 8.0 mg/kg/injection, schedule: Q01DX009 (ip), vehicle: saline + alcohol, higher = longer survival
  T/C: 156 % of control
endpoint: median survival time, dose: 8.4 mg/kg/injection, schedule: Q01DX001 (sc), vehicle: Klucel (hydroxypropylcellulose) (HPC), higher = longer survival
  T/C: 114 % of control
endpoint: median survival time, dose: 10.0 mg/kg/injection, schedule: Q01DX001 (ip), vehicle: saline + alcohol, higher = longer survival
  T/C: 116 % of control
endpoint: median survival time, dose: 12.5 mg/kg/injection, schedule: Q01DX001 (ip), vehicle: saline, higher = longer survival
  T/C: 104 % of control
endpoint: median survival time, dose: 12.5 mg/kg/injection, schedule: Q06HX004 (ip), vehicle: saline, higher = longer survival
  T/C: 158 % of control
endpoint: median survival time, dose: 12.5 mg/kg/injection, schedule: Q06HX012 (ip), vehicle: saline, higher = longer survival
  T/C: 93 % of control
endpoint: median survival time, dose: 12.5 mg/kg/injection, schedule: Q08DX003 (ip), vehicle: saline, higher = longer survival
  T/C: 108 % of control
endpoint: median survival time, dose: 14.0 mg/kg/injection, schedule: Q01DX001 (sc), vehicle: Klucel (hydroxypropylcellulose) (HPC), higher = longer survival
  T/C: 158 % of control
endpoint: median survival time, dose: 14.0 mg/kg/injection, schedule: Q07DX003 (ip), vehicle: saline, higher = longer survival
  T/C: 104 % of control
endpoint: median survival time, dose: 15.0 mg/kg/injection, schedule: Q07DX003 (ip), vehicle: saline, higher = longer survival
  T/C: 90 % of control
endpoint: median survival time, dose: 20.0 mg/kg/injection, schedule: Q01DX001 (ip), vehicle: saline + alcohol, higher = longer survival
  T/C: 92 % of control
endpoint: median survival time, dose: 23.0 mg/kg/injection, schedule: Q01DX001 (sc), vehicle: Klucel (hydroxypropylcellulose) (HPC), higher = longer survival
  T/C: 177 % of control
endpoint: median survival time, dose: 23.0 mg/kg/injection, schedule: Q07DX003 (ip), vehicle: saline, higher = longer survival
  T/C: 112 % of control
endpoint: median survival time, dose: 24.0 mg/kg/injection, schedule: Q01DX001 (ip), vehicle: saline, higher = longer survival
  T/C: 102 % of control
endpoint: median survival time, dose: 24.0 mg/kg/injection, schedule: Q07DX003 (ip), vehicle: saline, higher = longer survival
  T/C: 175 % of control
endpoint: median survival time, dose: 25.0 mg/kg/injection, schedule: Q01DX001 (ip), vehicle: saline, higher = longer survival
  T/C: 122 % of control
endpoint: median survival time, dose: 25.0 mg/kg/injection, schedule: Q08DX003 (ip), vehicle: saline, higher = longer survival
  T/C: 91 % of control
endpoint: median survival time, dose: 30.0 mg/kg/injection, schedule: Q01DX001 (ip), vehicle: saline + alcohol, higher = longer survival
  T/C: 92 % of control
endpoint: median survival time, dose: 30.0 mg/kg/injection, schedule: Q01DX001 (ip), vehicle: saline, higher = longer survival
  T/C: 197 % of control
endpoint: median survival time, dose: 30.0 mg/kg/injection, schedule: Q07DX003 (ip), vehicle: saline, higher = longer survival
  T/C: 197 % of control and 204 % of control
endpoint: median survival time, dose: 30.0 mg/kg/injection, schedule: Q14DX002 (ip), vehicle: saline, higher = longer survival
  T/C: 187 % of control
endpoint: median survival time, dose: 39.0 mg/kg/injection, schedule: Q07DX003 (ip), vehicle: saline, higher = longer survival
  T/C: 151 % of control
endpoint: median survival time, dose: 45.0 mg/kg/injection, schedule: Q01DX001 (ip), vehicle: saline, higher = longer survival
  T/C: 151 % of control
endpoint: median survival time, dose: 45.0 mg/kg/injection, schedule: Q07DX003 (ip), vehicle: saline, higher = longer survival
  T/C: 117 % of control
endpoint: median survival time, dose: 45.0 mg/kg/injection, schedule: Q14DX002 (ip), vehicle: saline, higher = longer survival
  T/C: 117 % of control
endpoint: median survival time, dose: 50.0 mg/kg/injection, schedule: Q01DX001 (ip), vehicle: saline, higher = longer survival
  T/C: 181 % of control
endpoint: median survival time, dose: 56.0 mg/kg/injection, schedule: Q07DX003 (ip), vehicle: saline, higher = longer survival
  T/C: 100 % of control
